Assay [1] concerns the target T1, MYT1 protein (Homo sapiens (Human), UniProt Q99640). Put plainly: MYT1 kinase activity inhibition test (ELISA, phosphorylation of Y15 of CDK1). The format is biochemical. The note with it: phosphorylation level of Y15 of CDK1 protein caused by MYT1 protein, 60 minutes. The method, boiled down: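 Recombinant human MYT1 (5 nM working solution) was incubated 60 min at room temperature with compound and ATP (83.3 μM working solution) on a CDK1-coated ELISA plate. CDK1 Y15 phosphorylation was detected with HRP anti-phosphotyrosine, read as A450 minus A590. Inhibition was normalised to no-compound (100%) and no-enzyme (0%) signals to derive IC50.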

Assay [2] addresses T1, MYT1 protein. Put plainly: Test for binding to ATP binding site of MYT1 (Kinase Tracer 178 / Eu-Anti-GST antibody TR-FRET). To be noted: ATP binding site of MYT1, 30 minutes at room temperature.
A further assay deals with LU65. Put plainly: Cytotoxicity test with pemetrexed upon addition of each example compound (CellTiter-Glo). It counts as cell-based, human. The note with it: combination with pemetrexed, LU65 cells, 7 days; maximum value, at the MYT1 inhibitor and pemetrexed concentrations. The method, boiled down: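 LU65 lung cancer cells (RB1 S82* truncation, reduced RB1 function) in RPMI-1640/10% FBS were treated with pemetrexed plus each compound over concentration series, 7 days at 37 °C. ATP measured by CellTiter-Glo luminescence; survival relative to DMSO after blank subtraction, cytotoxicity = 100% minus survival.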
In general terms: In ATP-based viability assays light output follows the ATP content of the culture.

The structures appear in SMILES notation.

T1 sequence (Q99640 whole entry): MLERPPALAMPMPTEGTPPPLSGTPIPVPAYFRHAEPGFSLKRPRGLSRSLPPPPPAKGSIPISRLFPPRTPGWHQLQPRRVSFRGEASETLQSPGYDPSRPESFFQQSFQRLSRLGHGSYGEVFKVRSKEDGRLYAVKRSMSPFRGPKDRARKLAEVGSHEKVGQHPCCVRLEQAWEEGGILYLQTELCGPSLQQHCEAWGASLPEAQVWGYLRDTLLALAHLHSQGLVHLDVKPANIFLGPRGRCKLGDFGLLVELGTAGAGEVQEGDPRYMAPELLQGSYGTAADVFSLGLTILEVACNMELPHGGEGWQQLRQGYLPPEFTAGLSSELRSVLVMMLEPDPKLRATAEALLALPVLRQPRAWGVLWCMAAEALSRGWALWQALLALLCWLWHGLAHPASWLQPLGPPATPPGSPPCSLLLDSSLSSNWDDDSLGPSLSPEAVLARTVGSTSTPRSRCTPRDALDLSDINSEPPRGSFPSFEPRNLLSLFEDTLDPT

By IC50 is commonly meant the concentration needed to halve the response being measured. The low end stands for higher potency, the high end for lower potency. In turn, `Nc1c(-c2ccc(Cl)c3[nH]ncc23)c2cc(C3CC3)c3ncccc3c2[nH]c1=O` [Compound C143, 3-Amino-4-(7-chloro-1H-indazol-4-yl)-6-cyclopropyl-1H-1,7-phenanthrolin-2-one] yielded a 50% inhibitory concentration (IC50) at MYT1 protein [1] of 0.2 nM. For the same molecule, at MYT1 protein [2], the IC50 was found to be 2.7 nM. For the same molecule, in the assay with LU65, the “Bliss Score (Max)” value was 50% and the “HSA Score (MAX)” value is given as 67%.

In the case of `Nc1c(-c2ccc(Cl)c3[nH]ncc23)c2ccc3ncccc3c2[nH]c1=O` [Compound C144, 3-Amino-4-(7-chloro-1H-indazol-4-yl)-1H-1,7-phenanthrolin-2-one], the results for the IC50 against MYT1 protein [1] and at MYT1 protein [2] were 0.32 nM and 7 nM, respectively. In addition, the “Bliss Score (Max)” value in the assay on LU65 is 39%. In addition, the “HSA Score (MAX)” value with LU65 is given as 47%.

At MYT1 protein [1], `Nc1c(-c2ccc(F)c3[nH]ncc23)c2cc(C3CCNC3)c3ncccc3c2[nH]c1=O.O=CO` (stereo not shown) [Compound C146, 3-Amino-4-(7-fluoro-1H-indazol-4-yl)-6-pyrrolidin-3-yl-1H-1,7-phenanthrolin-2-one; formate] showed an IC50 of 16 nM. For the same molecule, the IC50 at MYT1 protein [2] turned out to be 3.4 nM. Moreover, in the assay with LU65, the “Bliss Score (Max)” value was 44% and the “HSA Score (MAX)” value worked out at 44%.

`Cc1cc2c(-c3c(F)ccc4[nH]ncc34)c(N)c(=O)[nH]c2c2cccnc12` [Compound C155, 3-Amino-4-(5-fluoro-1H-indazol-4-yl)-6-methyl-1H-1,7-phenanthrolin-2-one] came in with a 50% inhibitory concentration (IC50) on MYT1 protein [1] below 4.6 nM. The same molecule gave an IC50 at MYT1 protein [2] of 2.3 nM. Also, in the assay with LU65, the “Bliss Score (Max)” value came to 47% and the “HSA Score (MAX)” value worked out at 61%.

Molecule `Nc1c(-c2cccc3[nH]ncc23)c2cc(C3CC3)c3ncccc3c2[nH]c1=O` [Compound C185, 3-Amino-6-cyclopropyl-4-(1H-indazol-4-yl)-1H-1,7-phenanthrolin-2-one] displayed an IC50 against MYT1 protein [1] of 0.31 nM. The molecule also registered an IC50 at MYT1 protein [2] of 2.8 nM. Moreover, in the assay with LU65, the “Bliss Score (Max)” value was 55% and the “HSA Score (MAX)” value was determined as 68%.

`Cc1cc2c(-c3cc(F)c(F)c4[nH]ncc34)c(N)c(=O)[nH]c2c2cccnc12` [Compound C190, 3-amino-4-(6,7-difluoro-1H-indazol-4-yl)-6-methyl-1H-1,7-phenanthrolin-2-one] came in with an IC50 on MYT1 protein [1] of 0.34 nM. In addition, the IC50 at MYT1 protein [2] worked out at 2.5 nM. Moreover, in the assay on LU65, the “Bliss Score (Max)” value is given as 48% and the “HSA Score (MAX)” value was 66%.

For `Nc1c(-c2cc(F)c(Cl)c3[nH]ncc23)c2cc(C3CC3)c3ncccc3c2[nH]c1=O` [Compound C195, 3-Amino-4-(7-chloro-6-fluoro-1H-indazol-4-yl)-6-cyclopropyl-1H-1,7-phenanthrolin-2-one], the IC50 at MYT1 protein [1] is 0.24 nM. This molecule also came in with an IC50 at MYT1 protein [2] of 2.3 nM. For the same molecule, in the assay on LU65, the “Bliss Score (Max)” value is on record as 52% and the “HSA Score (MAX)” value is reported as 65%.

At MYT1 protein [1], `CC(=O)c1cc2c(-c3ccc(F)c4[nH]ncc34)c(N)c(=O)[nH]c2c2cccnc12` [Compound C200, 6-Acetyl-3-amino-4-(7-fluoro-1H-indazol-4-yl)-1H-1,7-phenanthrolin-2-one] registered an IC50 of 7 nM. Also, the IC50 at MYT1 protein [2] was 2.4 nM. In the assay on LU65, the “Bliss Score (Max)” value worked out at 44% and the “HSA Score (MAX)” value is listed as 56%.

`Nc1c(-c2ccc(F)c3[nH]ncc23)c2cc(C3CC3)c3cccnc3c2[nH]c1=O` [Compound D2, 3-Amino-6-cyclopropyl-4-(7-fluoro-1H-indazol-4-yl)-1H-1,10-phenanthrolin-2-one] gave an IC50 on MYT1 protein [1] of 15 nM. The molecule further registered an IC50 at MYT1 protein [2] of 4 nM. Further, in the assay on LU65, the “Bliss Score (Max)” value is 42% and the “HSA Score (MAX)” value is 51%.

For the molecule `Nc1c(-c2ccc(F)c3[nH]ncc23)c2cc(O[C@H]3C[C@H](F)C3)c3nccnc3c2[nH]c1=O` [Compound G16, 8-Amino-5-((1,3r)-3-fluorocyclobutyl)oxy-7-(7-fluoro-1H-indazol-4-yl)-10H-pyrido[2,3-f]quinoxalin-9-one], the values for the IC50 against MYT1 protein [1] and on MYT1 protein [2] were 0.086 nM and 0.91 nM, respectively. Moreover, the “Bliss Score (Max)” value with LU65 worked out at 50%. Further, the “HSA Score (MAX)” value with LU65 was determined as 58%.
